Test results reported in PubChem BioAssay (NCI).
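A five-concentration, 48-hour dose response in 96-well plates underlies each endpoint, interpolated linearly between surrounding concentrations. GI50 marks 50% less growth. TGI is the concentration that stops growth completely.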

Experiments:
Test in all cases: DTP human tumour cell line panel, 48 h
[1] = system: 786-0 renal
[2] = system: A498 renal
[3] = system: ACHN renal
[4] = system: BT-549 breast
[5] = system: CAKI-1 renal
[6] = system: CCRF-CEM leukemia
[7] = system: COLO 205 colon
[8] = system: DU-145 prostate
[9] = system: EKVX NSCLC
[10] = system: HCC-2998 colon
[11] = system: HCT-116 colon
[12] = system: HCT-15 colon
[13] = system: HL-60(TB) leukemia
[14] = system: HOP-62 NSCLC
[15] = system: HOP-92 NSCLC
[16] = system: HS 578T breast
[17] = system: HT29 colon
[18] = system: IGROV1 ovarian
[19] = system: K-562 leukemia
[20] = system: KM12 colon
[21] = system: LOX IMVI melanoma
[22] = system: M14 melanoma
[23] = system: MALME-3M melanoma
[24] = system: MCF7 breast
[25] = system: MDA-MB-231 breast
[26] = system: MDA-MB-435
[27] = system: MOLT-4 leukemia
[28] = system: NCI-H226 lung
[29] = system: NCI-H460 lung
[30] = system: NCI-H522 lung
[31] = system: NCI/ADR-RES ovarian
[32] = system: OVCAR-3 ovarian
[33] = system: OVCAR-4 ovarian
[34] = system: OVCAR-5 ovarian
[35] = system: OVCAR-8 ovarian
[36] = system: PC-3 prostate
[37] = system: RPMI-8226 leukemia
[38] = system: RXF 393 renal
[39] = system: SF-268 CNS
[40] = system: SF-295 CNS
[41] = system: SF-539 CNS
[42] = system: SK-MEL-2 melanoma
[43] = system: SK-MEL-28 melanoma
[44] = system: SK-MEL-5 melanoma
[45] = system: SK-OV-3 ovarian
[46] = system: SN12C renal
[47] = system: SNB-19 CNS
[48] = system: SNB-75 CNS
[49] = system: SR leukemia
[50] = system: SW-620 colon
[51] = system: T-47D breast
[52] = system: TK-10 renal
[53] = system: U251 CNS
[54] = system: UACC-257 melanoma
[55] = system: UACC-62 melanoma
[56] = system: UO-31 renal

CN(C)CCCNc1c2ccc(Cl)cc2nc2c1oc1ccccc12
GI50 [1]: 3.2 µM
TGI [1]: 14.2 µM
GI50 [2]: 7.55 µM
TGI [2]: 21.2 µM
GI50 [3]: 1780 nM
TGI [3]: 12.2 µM
GI50 [4]: 4.12 µM
TGI [4]: 14.4 µM
GI50 [5]: 1590 nM
TGI [5]: 4.39 µM
GI50 [6]: 2570 nM
TGI [6]: 10.3 µM
GI50 [7]: 1510 nM
TGI [7]: 4.03 µM
GI50 [8]: 3.49 µM
TGI [8]: 79.2 µM
GI50 [9]: 3.51 µM
TGI [9]: 21.3 µM
GI50 [10]: 1770 nM
TGI [10]: 4.18 µM
GI50 [11]: 1420 nM
TGI [11]: 8.19 µM
GI50 [12]: 2350 nM
TGI [12]: 11.1 µM
GI50 [13]: 2520 nM
TGI [13]: 8.94 µM
GI50 [14]: 2610 nM
TGI [14]: 9.05 µM
GI50 [15]: 1340 nM
TGI [15]: 5.13 µM
GI50 [16]: 3.53 µM
TGI [16]: 22.2 µM
GI50 [17]: 1340 nM
TGI [17]: 3.58 µM
GI50 [18]: 2770 nM
TGI [18]: 7.49 µM
GI50 [19]: 2020 nM
TGI [19]: 11.7 µM
GI50 [20]: 2760 nM
TGI [20]: 16.8 µM
GI50 [21]: 1860 nM
TGI [21]: 4.1 µM
GI50 [22]: 1690 nM
TGI [22]: 3.45 µM
GI50 [23]: 3.1 µM
TGI [23]: 10.6 µM
GI50 [24]: 1770 nM
TGI [24]: 6.02 µM
GI50 [25]: 2440 nM
TGI [25]: 8.61 µM
GI50 [26]: 1650 nM
TGI [26]: 3.32 µM
GI50 [27]: 676 nM
TGI [27]: 13.2 µM
GI50 [28]: 3.19 µM
TGI [28]: 11.9 µM
GI50 [29]: 1640 nM
TGI [29]: 8.1 µM
GI50 [30]: 2180 nM
TGI [30]: 7.89 µM
GI50 [31]: 1910 nM
TGI [31]: 12.6 µM
GI50 [32]: 3.45 µM
TGI [32]: 15.6 µM
GI50 [33]: 2120 nM
TGI [33]: 6.89 µM
GI50 [34]: 2460 nM
TGI [34]: 7.81 µM
GI50 [35]: 2420 nM
TGI [35]: 7.87 µM
GI50 [36]: 2160 nM
TGI [36]: 6.13 µM
GI50 [37]: 2270 nM
TGI [37]: 5.94 µM
GI50 [38]: 1640 nM
TGI [38]: 3.76 µM
GI50 [39]: 2540 nM
TGI [39]: 12.1 µM
GI50 [40]: 3.41 µM
TGI [40]: 15.3 µM
GI50 [41]: 1760 nM
TGI [41]: 3.39 µM
GI50 [42]: 3.29 µM
TGI [42]: 12.6 µM
GI50 [43]: 4.43 µM
TGI [43]: 16.3 µM
GI50 [44]: 10.6 µM
TGI [44]: 23.8 µM
GI50 [45]: 3.04 µM
TGI [45]: 11.2 µM
GI50 [46]: 2500 nM
TGI [46]: 11.6 µM
GI50 [47]: 3.37 µM
TGI [47]: 20.5 µM
GI50 [48]: 1680 nM
TGI [48]: 4.66 µM
GI50 [49]: 2340 nM
TGI [49]: 10.3 µM
GI50 [50]: 1240 nM
TGI [50]: 10.1 µM
GI50 [51]: 4.84 µM
TGI [51]: 23.2 µM
GI50 [52]: 4.19 µM
TGI [52]: 22.1 µM
GI50 [53]: 2690 nM
TGI [53]: 10.3 µM
GI50 [54]: 3.79 µM
TGI [54]: 15.2 µM
GI50 [55]: 5.2 µM
TGI [55]: 19.6 µM
GI50 [56]: 2090 nM
TGI [56]: 12.8 µM
